Several values for one entry are separate records, joined by “and”; a condition that tells them apart may be missing. Identical values can stand only once. Like-named read-outs stand apart in the source and are kept apart here.
Tests used:
[1] = system: myo-inositol dehydrogenase; experiment: Km-value measurement for substrate and coenzymes; assay type: biochemical, Bacillus sp. No. 3
Method: Km-value for myo-inositol is measured at various concentrations of myo-inositol in a reaction mixture of:
Further in the reaction mixture, 1 mM NAD is replaced by 1 mM thio-NAD (Sigma Co. ) and the Km-value for myo-inositol is measured. The result is Km-value: 10.0 mM (myo-inositol).
Km-value in the reaction of NADP and myo-inositol are measured. The results are as follows:
Km-values in the reaction of the thio-NADP and myo-inositol are as follows: […]

[2] = system: myo-inositol dehydrogenase; experiment: Relative activity with coenzyme thio-NAD compared to NAD; assay type: biochemical, Bacillus sp. No. 3
[3] = system: myo-inositol dehydrogenase; experiment: Substrate specificity of myo-inositol dehydrogenase; assay type: biochemical, Bacillus sp. No. 3; details: myo-inositol = 100%
Method: 1. Substrate specificity:
The above reaction mixture (1 ml) is incubated in a small test tube at 37° C. for 5 mins. Diluted enzyme solution (0.02 ml) is added and the mixture is stirred to initiate the reaction. After exactly 10 mins., 0.1N HCl (2.0 ml) was added and the mixture is stirred to stop the reaction. Absorption at 550 nm (A550 nm) is measured to obtain absorption A1. The assay was repeated using the above reaction mixture except that myo-inositol was not included. The mixture is also treated in the same manner as described above and its absorption Ao was measured.
(3) Calculation of enzyme activity: [formula] wherein

[4] = system: myo-inositol dehydrogenase; details: enzyme produced by yeast Cryptococcus melibiosum, cited from earlier work

Row | Molecule | Substrate specificity (relative activity) [3] [%] | also measured
1 | NC(=S)c1ccc[n+]([C@@H]2O[C@H](COP(=O)([O-])OP(=O)(O)OC[C@H]3O[C@@H](n4cnc5c(N)ncnc54)[C@H](O)[C@@H]3O)[C@@H](O)[C@H]2O)c1 [thio-NAD, thionicotinamide adenine dinucleotide] |  | Km ([1]; 150 mM myo-inositol, read-out: Km-value (thio-NAD)): 170 µM; Relative activity when coenzyme thio-NAD is used, as compared to NAD [2]: 10-15%
2 | OC[C@H]1O[C@@H](O[C@H]2[C@H](O)[C@@H](O)C(O)O[C@@H]2CO)[C@H](O)[C@@H](O)[C@H]1O (stereo partly drawn) [lactose] | 0 | 
3 | glucose | 0 | 
4 | OC[C@H]1O[C@@](CO)(O[C@H]2O[C@H](CO)[C@@H](O)[C@H](O)[C@H]2O)[C@@H](O)[C@@H]1O [saccharose] | 0 | 
5 | NC(=O)c1ccc[n+]([C@@H]2O[C@H](COP(=O)([O-])OP(=O)(O)OC[C@H]3O[C@@H](n4cnc5c(N)ncnc54)[C@H](O)[C@@H]3O)[C@@H](O)[C@H]2O)c1 [NAD, nicotinamide adenine dinucleotide] |  | Km ([4]; read-out: Km value for NAD): ~70 µM
6 | NC(=S)c1ccc[n+]([C@@H]2O[C@H](COP(=O)([O-])OP(=O)(O)OC[C@H]3O[C@@H](n4cnc5c(N)ncnc54)[C@H](OP(=O)(O)O)[C@@H]3O)[C@@H](O)[C@H]2O)c1 [thio-NADP, thionicotinamide adenine dinucleotide phosphate] |  | Km ([1]; reaction of thio-NADP and myo-inositol, read-out: Km-value (thio-NADP)): 2540 µM
7 | O=C(CO)[C@@H](O)[C@H](O)[C@H](O)CO [fructose] | 0 | 
8 | OC[C@@H](O)[C@@H](O)[C@H](O)[C@@H](O)CO [sorbitol] | 0 | 
9 | mannose | 0 | 
10 | OC[C@H]1O[C@H](O[C@H]2[C@H](O)[C@@H](O)[C@H](O)O[C@@H]2CO)[C@H](O)[C@@H](O)[C@@H]1O [maltose] | 0 | 
11 | NC(=O)c1ccc[n+]([C@@H]2O[C@H](COP(=O)([O-])OP(=O)(O)OC[C@H]3O[C@@H](n4cnc5c(N)ncnc54)[C@H](OP(=O)(O)O)[C@@H]3O)[C@@H](O)[C@H]2O)c1 [NADP, nicotinamide adenine dinucleotide phosphate] |  | Km ([1]; reaction of NADP and myo-inositol, read-out: Km-value (NADP)): 190 µM
12 | galactose | 0 | 
13 | O[C@H]1[C@H](O)[C@@H](O)[C@H](O)[C@@H](O)[C@H]1O [myo-inositol] | 100 | Km ([4]; read-out: Km value for myo-inositol): ~11000 µM; Km ([1]; coenzyme 1 mM NAD, Tris-HCl buffer pH 8.5, read-out: Km-value (myo-inositol)): 640 µM and ~600 µM; Km ([1]; coenzyme 1 mM thio-NAD, read-out: Km-value (myo-inositol)): 10000 µM; Km ([1]; reaction of NADP and myo-inositol, read-out: Km-value (myo-inositol)): 30900 µM

Reference: US5356790A, “Highly sensitive assay method for myo-inositol, composition for practicing same, novel myo-inositol dehydrogenase, and process for producing same” (Asahi Kasei Kogyo Kabushiki Kaisha, priority 1990, dated 1994)
